Data taken from patent publication US20230414629A1, “MATERIALS AND METHODS OF TREATING CANCER” (MONOPTEROS THERAPEUTICS, INC., priority 2020, published 2023).
“Also recorded” adds a separate entry of the source.

Experiments:
D4M.3A tumor [1] = experiment: D4M.3A syngeneic tumors in C57BL/6J mice, I.P. monotherapy and combination with anti-PD-1; format: in vivo
Procedure: One million cells of D4M.3A tumor were injected subcutaneously into the right hind flank of C57BL/6J mice.
Anti-PD-1 Antibody dosing was 10 μL/g animal weight for 3 doses on first, third and fifth treatment day.
Measurement of tumor volume (L×W2)/2 was done by caliper. Longest tumor diameter becomes length. Width is perpendicular to length. Volume=(width2×length)/2.

[2] = tested on: circulating regulatory T cells (Tregs); experiment: Circulating Tregs in rats under continuous oral dosing (flow cytometry); format: in vivo; settings: 15 and 30 mg/kg oral, days 0 through 14
Description: Animals: Harlan Sprague Dawley rats (Hsd:SD) rats were procured through Envigo (Indianapolis, IN). Rats were individually housed in an Optirat carousel with a filtered air supply (Animal Care Systems, Inc. [Centennial, CO]). Rats were fed Teklad rodent diet (Cat. #2020X) and bedded with Teklad ⅛th inch corncob bedding.
Blood sampling: After a 72-hour acclimation period, Rats were randomized into (3) groups of 5 rats each (Day −1). Blood samples were taken on days: −1, 3, 5, 7, 10, and 14. Blood sampling was conducted by inserting a 22 g PinPort injector (Cat. #PNP3M) on the pinport and drawing 200 μL of catheter Loc solution using a 1 mL syringe. The syringe was discarded and a new 1 mL syringe was used to draw approximately 300 μL of whole blood. Whole blood was expelled into 1.7 mL K2EDTA coated tubes and inverted 3× and put at 4 C until processing for flow cytometry. A syringe with Catheter Loc solution (Heparin/Glycerol Loc solution, Cat. #HGS-5 [Braintree Scientific]) was placed on a new PinPort injector and 200 μL of catheter loc solution was added. […]
Flow cytometry: Following red blood cell lysis (BD Pharm Lyse, Cat. #555899, Lot #9311388), rat blood samples were stained with near-IR fixable viability dye (1:3000 dilution, Invitrogen, Cat. #L34960 H, Lot #2159963) for 30 minutes at room temperature. […] Data was analyzed with FlowJo (BD, v10.6.2).

pKa = format: physicochemical
[3] = Serum IgE and IgG in dogs dosed daily for 28 days; format: in vivo; settings: 10-30 mg/kg daily for 28 days
Procedure: Whole venous blood samples of approximately 1 mL were collected from a peripheral vein of all animals on day 0 and on day 28 of the treatment period for determination of IgG and IgE concentrations. Test samples were diluted and incubated in the microtiter wells for 45 minutes alongside dog IgG or IgE standards. The microtiter wells were subsequently washed and HRP conjugate is added and incubated for 45 minutes. IgG or IgE molecules are thus sandwiched between the immobilization and detection antibodies. The wells were then washed to remove unbound HRP-labeled antibodies and TMB reagent was added and incubated for 20 minutes at room temperature. […] Color development is stopped by the addition of Stop Solution, changing the color to yellow, and optical density is measured spectrophotometrically at 450 nm. The concentration of IgG or IgE is proportional to the optical density of the test sample and is derived from a standard curve.

D4M.3A tumor [4] = experiment: Tumor growth in D4M.3A tumor-bearing C57/BL6 mice, oral dosing; format: in vivo; settings: 64 mg/kg orally once per day for 20 days
Description: (§1) A high volume of distribution (Vss 22.6 l/kg) was observed. […] MPT-0118 is quickly distributed from the plasma to the tissue compartment, which reduces the risk for depletion of circulating Tregs. The high volume of distribution and accumulation of MPT-0118 in tumor tissue broadens the therapeutic window for cancer therapy.

[5] = Tumor pharmacokinetics in D4M.3A tumor-bearing C57/BL6 mice; format: in vivo; settings: 64 mg/kg PO once per day, after 20 days of dosing, for a 24-hour period
Procedure: as §1, with “observed. […] The tumor concentrations in this experiment were above 3 μM for a 24-hour period, which is a required dose for an anti-tumor effect in patient-derived tumor spheroids as shown in FIG. 9.” for “observed.”

[6] = tested on: patient-derived tumor spheroids; experiment: Anti-tumor effect in patient-derived tumor spheroids; format: cell-based
[7] = Plasma pharmacokinetics in C57/BL6 mice; format: in vivo
Procedure: as §1, with “observed. […] The tumor concentrations in this experiment were above 3 μM for a 24-hour period, which is a required dose for an anti-tumor effect in patient-derived tumor spheroids as shown in FIG. 9.” for “observed.”

[8] = in vivo; cited from earlier work

Q: Which tumor volume (D4M.3A tumor [1]; combination therapy: 32 mg/kg I.P. once per day with anti-PD-1 antibody) does the source give for `CN1CCC[C@H](CN2c3ccccc3Sc3ccccc32)C1` [(S)-mepazine] here?
A: significant reduction in tumor volume; also recorded: reduced tumor volume

Q: What about the tumor volume (D4M.3A tumor [1]; monotherapy, 32 mg/kg I.P. once per day, from day 9) of the same compound?
A: reduced tumor volume

Q: What about the “average percent of circulating regulatory T cells (Tregs)” value [2] of the same compound?
A: no effect; also recorded: did not deplete

Q: And the pKa (pKa)?
A: 9.2

Q: What about the “serum levels of IgE” value [3] of the same compound?
A: not negatively impact; also recorded: did not increase; also recorded: did not decrease

Q: And the “serum levels of IgG” value [3]?
A: not negatively impact; also recorded: did not increase; also recorded: did not decrease

Q: What about the tumor growth inhibition (D4M.3A tumor [4]) of the same compound?
A: significant tumor growth inhibition

Q: And the tumor concentrations [5]?
A: above 3 μM

Q: What about the “required dose for an anti-tumor effect in patient-derived tumor spheroids” value [6] of the same compound?
A: 3 µM

Q: What about the Vd ([7]; C57/BL6, mouse, single dose 16 mg/kg IV, plasma over 8 hours, read-out: volume of distribution (Vss)) of the same compound?
A: 22.6 L/kg

Q: What about the bioavailability ([7]; mouse, in vivo, po) of the same compound?
A: 25 to 35%

Q: Which pKa (pKa) does the source give for `CO[C@@H](C)c1c(NC(=O)Nc2cnc(-n3nccn3)c(C(F)(F)F)c2)cnc(N)c1Br` [Compound-139] here?
A: 6.5

Q: Which pKa (pKa) does the source give for `CO[C@@H](C)c1c(NC(=O)Nc2cnc(-n3nccn3)c(Cl)c2)cnc2cc(Cl)nn12` [Example-10] here?
A: < 5

Q: Which “serum IgE” value [8] does the source give for `CO[C@@H](C)c1c(NC(=O)Nc2ccnc(C(F)(F)F)c2)cnc2cc(Cl)nn12` [MLT-943] here?
A: increased
